Laboratory results: patent publication US6593324B2, “Dervatives of quinoline as alpha-2 antagonists” (Orion Corporation, priority 2000, dated 2003)

Legend:
male NMRI mice = test: Antagonism of dexmedetomidine-induced locomotor inhibition; type: in vivo; details: various doses 20 min before dexmedetomidine 50 nmol/kg s.c.; activity measured 20 min after; atipamezole effective at 0.3 and 1.0 μmol/kg s.c. (p<0.01); FIG. 1
Excerpt: Dexmedetomidine and atipamezole are very potent and specific alpha-2 adrenoceptor agonists and antagonists, respectively, which lack alpha-2 subtype selectivity (H. Scheinin et al., European Journal of Pharmacology, Molecular Section, vol.151(1), 1988, p.35-42). The alpha-2 agonist-induced sedation is known to be an alpha-2A-mediated phenomenon that can be antagonised by alpha-2 antagonists (J. Sallinen et al., Mol. Pharmacol. Vol.51, 1997, p.36-46, and A. Haapalinna et al., Naunyn-Schimiedeberg's Arch. Pharmacol. Vol.356, 1997, p.570-582). The sedative effect of alpha-2 agonists in mice is measured by the inhibition on locomotor activity. Therefore, we compared the ability of Compound I and atipamezole to antagonise the dexmedetomidine-induced locomotor inhibition to evaluate the in vivo alpha-2A adrenoceptor antagonism (and alpha-2C selectivity) of these compounds.
Spontaneous locomotor activity of a total of 76 male NMRI mice (B&K, Sweden) was measured by placing individual animals into a polypropylene animal cage (38×22×15 cm). The cages were surrounded with an infrared photobeam frame system designed for activity measurements (Photobeam Activity System PAS, Cage Rack, San Diego Instruments, San Diego, Calif., USA). […] Spontaneous locomotor activity was measured 20 min after dexmedetomidine injection.

Balb/c mice = test: Mouse forced swimming test; type: in vivo; details: 0.3 μmol/kg 40 min before test; activity between 2 and 6 min; Compound 1 p=0.013, atipamezole p=0.52; FIG. 2
Excerpt: This can be observed for example employing the forced swimming test, in which a rat or mouse is put into a water-filled cylinder. After a vigorous period of attempts to escape animals adopt an immobile floating posture; the extent of the immobile period is monitored and can be reduced by antidepressants and stress-protective agents. Transgenic mice that lack functional alpha-2C adrenoceptor tolerated swim-stress better than their similarly treated wild-type controls (J. Sallinen et al., Mol. Psychiatry, vol.4, 1999, p.443-452). Therefore, an increase in the forced swimming activity can be used as a measure of in vivo alpha-2C selective antagonism of a compound.
The forced swim test was conducted as originally described employing the stress sensitive (J. Crawley and L. Davis, Brain Research Bulletin, vol.8, 1982, p.609-612, and U.S. Pat. No. 5,902,807) Balb/c mouse strain (B&K, Sweden). The mice were administered either with vehicle (0.1% DMSO, 5 ml/kg subcutaneously), Compound 10.3 μmol/kg, or atipamezole 0.3 μmol/kg 40 min before putting the mice into a vessel (10 cm diameter, 18.5 cm height, filled with 25° C. water up to 8 cm height). The cumulative activity of each mouse was measured between 2 and 6 min after introduction to the vessel. Only vigorous attempts to escape (climbing) were registered. The mice (a total of 96) were tested only once.

test animals = details: literature report; cited from earlier work
brain = details: employed doses of atipamezole; literature report; cited from earlier work

SMILES	antagonism of dexmedetomidine-induced sedation (locomotor inhibition) (male NMRI mice)	stress-protective effect: forced swimming activity (climbing) vs vehicle (Balb/c mice)	stress-protective effect (test animals)	neurochemical effect: noradrenaline release in brain (brain)
CN1CCN(c2ccc(Nc3c4ccccc4nc4ccccc34)cc2)CC1 [Compound 1, Acridin-9-yl-[4-(4-methylpiperazin-1-yl)-phenyl]amine]	did not antagonise the alpha-2-agonist-induced sedation at all	tolerated clearly better stress-induced propagation of behavioural despair	–	–
CCC1(c2cnc[nH]2)Cc2ccccc2C1 [atipamezole]	inhibited dexmedetomidine-induced sedation	did not have any clear effect on the activity	did not have a clear stress-protective effect	stimulate noradrenaline release in brain
